# Several values for one entry are separate records, joined by “and”; a condition that tells them apart may be missing. Equal values may be shown once.
# Columns and labels:
# [1] = molecular target: T1, CYP2D6 (Homo sapiens, UniProt P10635); test: Time-dependent CYP inhibition in HLM, CYP2D6; type: in vitro ADME; details: 10 μM, 30 min pre-incubation with NADPH
# T1 construct: tissue Life Technologies (Durham, NC, USA); host or cells: human liver microsomes
# Protocol: (§1) The procedure of time-dependent CYP inhibition was similar to that used for CYP reversible inhibition, as mentioned above, except that a pre-incubation step was added. […] Another appropriate volume of the NADPH-regenerating system and probe substrate were added to initiate the CYP isoform enzyme activity test step. For this step, the incubation period was 10 min, except for CYP2B6, CYP2C8, and CYP3A4/5 (probe substrate: midazolam), which was 3 min to make sure the reaction was under initial linear rates. After incubation for the designated time periods at 37°C, the ice-cold acetonitrile containing IS was added to quench the reaction. […] (Ainactivator/[…] represents the enzyme activity remaining due to the inhibition by the diluted inactivator in the enzyme activity test step, and (Ainactivator/[…] represents the remaining enzyme activity due to pre-incubation loss plus inhibition by the diluted inactivator in the enzyme activity test step.
# [2] = Plasma protein binding (RED), human plasma; type: in vitro ADME; details: mouse, rat, dog, monkey, human, plasma, pH 7.4; all species, all cases (data not shown); read-out: post-dialysis recovery
# Protocol: (§2) The plate containing plasma and buffer was equilibrated for 6 h in a 37°C water shaking bath. After incubation, aliquots of buffer and plasma (20 µL) on both sides were collected and precipitated using organic solvents. […] The post-dialysis recovery of amdizalisib was also measured.
# [3] = tested on: plasma proteins; test: Plasma protein binding (RED), human plasma; type: in vitro ADME
# Protocol: as §2
# [4] = molecular target: T2, CYP1A2 (Homo sapiens, UniProt P05177); test: Reversible CYP inhibition in HLM, CYP1A2 (phenacetin); type: in vitro ADME; details: for enzyme activity remaining: CYP1A2, HLM
# T2 construct: tissue Life Technologies (Durham, NC, USA); host or cells: human liver microsomes
# T2 sequence (P05177 1-516): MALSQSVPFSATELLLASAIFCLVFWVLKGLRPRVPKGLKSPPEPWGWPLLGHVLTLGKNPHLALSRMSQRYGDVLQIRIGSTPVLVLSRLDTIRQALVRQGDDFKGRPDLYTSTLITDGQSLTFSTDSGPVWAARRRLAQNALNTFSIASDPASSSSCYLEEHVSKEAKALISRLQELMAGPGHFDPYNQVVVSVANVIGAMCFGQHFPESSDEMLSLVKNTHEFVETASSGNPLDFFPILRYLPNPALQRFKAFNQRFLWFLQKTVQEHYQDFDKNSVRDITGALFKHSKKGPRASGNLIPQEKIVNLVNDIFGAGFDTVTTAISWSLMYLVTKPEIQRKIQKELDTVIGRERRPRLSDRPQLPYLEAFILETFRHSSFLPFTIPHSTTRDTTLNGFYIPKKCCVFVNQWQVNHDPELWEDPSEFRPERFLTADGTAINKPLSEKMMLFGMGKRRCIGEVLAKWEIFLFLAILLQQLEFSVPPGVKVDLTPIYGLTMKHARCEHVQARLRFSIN
# Protocol: The markers used to determine the activities of CYP isoforms were phenacetin O-deethylation for CYP1A2 (probe substrate: 50 µM phenacetin), bupropion hydroxylation for CYP2B6 (probe substrate: 70 µM bupropion), paclitaxel 6α-hydroxylation for CYP2C8 (probe substrate: 10 µM paclitaxel), diclofenac 4′-hydroxylation for CYP2C9 (probe substrate: 5 µM diclofenac), S-(+)-mephenytoin 4′-hydroxylation for CYP2C19 (probe substrate: 20 µM S-(+)-mephenytoin), dextromethorphan O-demethylation for CYP2D6 (probe substrate: 6 µM dextromethorphan), chlorzoxazone 6′-hydroxylation for CYP2E1 (probe substrate: 70 µM chlorzoxazone), and testosterone 6β-hydroxylation and midazolam 1′-hydroxylation for CYP3A4/5 (probe substrate: 45 µM testosterone and 5 µM midazolam). […] Alpha-naphthoflavone (0.04 µM), 2-phenyl-2-(1-piperidinyl)propane (5 µM), quercetin (1 µM), sulfaphenazole (0.5 µM), ticlopidine (4 µM), quinidine (0.2 µM), diethyldithiocarbamate (20 µM), and ketoconazole (0.05 µM) were used as positive inhibitors of CYP1A2, 2B6, 2C8, 2C9, 2C19, 2D6, 2E1, and 3A4, respectively. The vehicle control was prepared in the same composition as inhibitor solutions but free of inhibitors. The concentrations of probe substrates were close to Km values that were determined in-house and within the range recommended by the FDA ([Huang et al., 2007]). Reaction mixtures were incubated at 37°C for 5, 20, or 30 min, depending on the probe substrates of CYP isoforms. The reactions were terminated by adding cold acetonitrile containing IS, and the terminated incubation mixtures were centrifuged at 3,000 g for 10 min before LC-MS/MS analysis.
# [5] = tested on: CYP2C8 mRNA; test: CYP induction in human hepatocytes, CYP2C8 mRNA (RT-PCR)
# Protocol: (§3) […] […] […] Enzyme activity for each CYP isoform was reported as a fold change over vehicle control and the percent of positive control (detailed calculation in Supplementary 1.1). Hepatocytes were harvested with a lysis buffer from RNeasy 96 Kit (Qiagen Inc., Germantown, MD, USA) to isolate RNA, which was analyzed by real-time quantitative polymerase chain reaction (RT-PCR). […] Emax (the maximal observed induction) and EC50 (the concentration that supports half-maximal induction) were estimated by non-linear regression of fold increase in CYP mRNA expression versus concentration plots.
# (§4) % of positive control = [(fold change in treated sample)-1] / [(fold change in positive control)-1] × 100
# (§5) Based on the gene expression, a minimum of 4-fold increase of positive control compared to vehicle control, a minimum of 2-fold increase of the test article compared vehicle control and increased in a concentration-dependent manner was considered as the cutoff for a positive signal in in vitro induction assay.
# [6] = tested on: CYP1A2 mRNA; test: in vitro; details: human; for EC50 at 48 h: EC50, CYP1A2 expression
# Protocol: as §3, §4, §5
# [7] = parameters: method as in Cao et al., 2023; details: single oral 30 mg, high-fat diet, ref Cao et al., 2023, cited from earlier work
# [8] = molecular target: T2, CYP1A2; test: Time-dependent CYP inhibition in HLM, CYP1A2; type: in vitro ADME; details: 10 μM, 30 min pre-incubation with NADPH
# Protocol: as §1
# T1 sequence (P10635 whole entry): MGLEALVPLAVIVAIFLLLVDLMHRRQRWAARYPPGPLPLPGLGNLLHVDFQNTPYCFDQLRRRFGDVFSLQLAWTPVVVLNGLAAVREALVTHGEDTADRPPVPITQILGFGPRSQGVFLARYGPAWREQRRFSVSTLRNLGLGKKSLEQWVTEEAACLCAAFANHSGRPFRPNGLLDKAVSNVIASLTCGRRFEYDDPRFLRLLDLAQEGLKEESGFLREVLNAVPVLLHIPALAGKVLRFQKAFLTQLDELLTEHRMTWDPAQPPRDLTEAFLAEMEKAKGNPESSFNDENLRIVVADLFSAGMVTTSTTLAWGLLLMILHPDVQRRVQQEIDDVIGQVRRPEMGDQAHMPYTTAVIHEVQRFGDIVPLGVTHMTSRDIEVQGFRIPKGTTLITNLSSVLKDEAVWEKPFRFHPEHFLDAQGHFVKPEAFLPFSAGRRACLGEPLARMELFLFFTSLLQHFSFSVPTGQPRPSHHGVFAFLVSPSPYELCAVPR
smiles,measurement,setting,value
C[C@H](Nc1ncnc(N)c1C#N)c1cc2ncc(Cl)n2nc1-c1ccccc1 [Amdizalisib],activity loss of CYP2D6,[1],less than 10%
same,recovery at 6 h,[2],> 90%
same,"Binding fraction to plasma proteins, Human",[3]; 0.1 µM,94.0 ± 0.86%
same,"Binding fraction to plasma proteins, Human",[3]; 1 µM,92.8 ± 0.54%
same,"Binding fraction to plasma proteins, Human",[3]; 20 µM,92.4 ± 0.15%
same,stability in plasma post-incubation,"[3]; all species, 37°C 6 h (data not shown)",> 90%
same,fraction unbound at 6 h,"[3]; plasma, pH 7.4, all species (mouse, rat, dog, monkey, human), 0.1–20 μM",~0.1
same,IC50,[4],> 50 µM
same,enzyme activity remaining,[4]; 0.08 μM,104% and 96.1%
same,enzyme activity remaining,[4]; 0.4 μM,102% and 99.1%
same,enzyme activity remaining,[4]; 2 μM,94.1% and 95.9%
same,enzyme activity remaining,[4]; 10 μM,97.6% and 90.1%
same,enzyme activity remaining,[4]; 50 μM,99.1% and 99.6%
same,Gene expression Percent of PC (%),"[5]; CYP 2C8, donor four, 3 µM",14.5%
same,Gene expression Percent of PC (%),"[5]; female, human, 48 h, 0.3 µM",7.24%
same,Gene expression Percent of PC (%),"[5]; female, human, 48 h, 3 µM",13.5%
same,Gene expression Percent of PC (%),"[5]; female, human, 48 h, 20 µM",3.97%
same,Gene expression Percent of PC (%),"[5]; male, human, 48 h, 3 µM",9.01%
same,induction on CYP1A2 mRNA expression,"[6]; both, hepatocytes, 48 h, 20 µM",">2-fold induction on CYP1A2, 2B6, 3A4, 2C9 mRNA expression at 20 uM"
same,EC50 at 48 h,[6]; female,9.57 µM
same,Gene expression Percent of PC (%),"[6]; male, 48 h, 1 µM",3.60%
same,Gene expression Percent of PC (%),"[6]; male, 48 h, 3 µM",0.30%
same,Gene expression Percent of PC (%),"[6]; male, 48 h, 10 µM",10.7%
same,Gene expression Percent of PC (%),"[6]; male, 48 h, 20 µM",8.20%
same,Gene expression Percent of PC (%),"[6]; male, 48 h, 30 µM",14.2%
same,EC50 at 48 h,[6]; male,7.73 µM
same,median Tmax,[7]; Chinese healthy volunteers,4 h
same,effect of food on extent of oral absorption (AUC),[7],no significant effect
same,reduction of geometric mean of Cmax after food intake,[7],36%
same,activity loss of CYP1A2,[8],less than 10%

# From article PMC11211886 (Frontiers in Pharmacology, 2024)
